This is an account of results in publication PMC4840125, “[^18F]tetrafluoroborate as a PET tracer for the sodium/iodide symporter: the importance of specific activity” (EJNMMI Research, 2016).

In this assay the target is T1, human sodium/iodide symporter (hNIS) (Homo sapiens, UniProt Q92911).
T1 construct: gene SLC5A5; hNIS stably transfected in HCT116 human colon carcinoma cells (HCT116-hNIS-C19)
T1 sequence (Q92911 1-643): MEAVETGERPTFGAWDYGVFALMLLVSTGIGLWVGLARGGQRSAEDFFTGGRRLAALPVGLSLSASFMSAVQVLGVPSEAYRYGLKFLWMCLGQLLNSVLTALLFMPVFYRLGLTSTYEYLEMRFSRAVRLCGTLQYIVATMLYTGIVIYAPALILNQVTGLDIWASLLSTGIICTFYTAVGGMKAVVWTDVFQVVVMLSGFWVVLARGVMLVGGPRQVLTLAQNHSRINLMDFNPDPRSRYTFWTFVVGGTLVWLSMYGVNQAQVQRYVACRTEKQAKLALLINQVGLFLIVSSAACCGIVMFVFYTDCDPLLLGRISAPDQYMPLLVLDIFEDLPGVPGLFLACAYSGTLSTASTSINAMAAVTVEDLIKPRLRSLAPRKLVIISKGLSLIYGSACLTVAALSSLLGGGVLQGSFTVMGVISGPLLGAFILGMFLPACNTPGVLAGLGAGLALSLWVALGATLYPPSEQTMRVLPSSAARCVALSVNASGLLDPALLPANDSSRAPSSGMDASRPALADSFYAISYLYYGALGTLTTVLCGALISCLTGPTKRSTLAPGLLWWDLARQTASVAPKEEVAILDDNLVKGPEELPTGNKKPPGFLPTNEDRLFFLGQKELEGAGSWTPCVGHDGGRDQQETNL
The assay can be described thus: inhibition of […]BF4- uptake in hNIS-transfected cells, gamma counting. In kind it is cell-based.

Turning to `F[B-](F)(F)F` [[19F]BF4-], the IC50 (as a rule, the concentration that inhibits the measured activity by half) stood at 4.7 µM.
